One test deals with rat TAAR1 (Rattus norvegicus (Rat), UniProt Q923Y9). The test can be described thus: Radioligand binding assay on rat TAAR1. The following applies: read-out: Ki(μM) rat; rat TAAR1, HEK-293 membranes, second value of cell pair mouse/rat.
For the next test, the target named is mouse TAAR1 (Mus musculus (Mouse), UniProt Q923Y8). Briefly: Radioligand binding assay on mouse TAAR1.
Sequence of mouse TAAR1 (Q923Y8 whole entry): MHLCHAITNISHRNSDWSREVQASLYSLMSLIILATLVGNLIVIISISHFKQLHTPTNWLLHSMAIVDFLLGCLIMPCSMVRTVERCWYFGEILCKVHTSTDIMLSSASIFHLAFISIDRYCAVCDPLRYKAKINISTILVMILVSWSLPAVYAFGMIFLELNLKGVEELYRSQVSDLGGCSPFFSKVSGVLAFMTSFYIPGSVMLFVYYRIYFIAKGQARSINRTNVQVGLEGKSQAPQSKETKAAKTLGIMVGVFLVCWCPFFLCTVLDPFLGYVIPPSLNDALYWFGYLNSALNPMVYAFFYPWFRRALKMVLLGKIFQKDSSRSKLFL

Sequence of rat TAAR1 (Q923Y9 whole entry): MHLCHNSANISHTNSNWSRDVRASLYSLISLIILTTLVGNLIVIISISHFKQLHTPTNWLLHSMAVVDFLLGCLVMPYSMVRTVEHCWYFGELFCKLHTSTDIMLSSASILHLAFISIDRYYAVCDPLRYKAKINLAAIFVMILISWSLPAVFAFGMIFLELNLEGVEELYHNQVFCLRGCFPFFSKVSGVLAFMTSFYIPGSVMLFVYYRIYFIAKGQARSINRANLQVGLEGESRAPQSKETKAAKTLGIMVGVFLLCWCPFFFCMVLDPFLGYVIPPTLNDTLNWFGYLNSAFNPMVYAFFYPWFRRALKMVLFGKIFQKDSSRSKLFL

As for `O=C(Nc1ccc(Cl)nc1)c1ccc(OC2CNC2)cc1Cl` [Example 53, 4-(azetidin-3-yloxy)-2-chloro-N-(6-chloro-3-pyridyl)benzamide], the Ki on rat TAAR1 is 2.43 µM; on mouse TAAR1, 55.2 nM.
In the case of `O=C(Nc1ccc(CC2(F)CNC2)cc1)c1ccc(Cl)nc1` [Example 54, 6-chloro-N-[4-[(3-fluoroazetidin-3-yl)methyl]phenyl]pyridine-3-carboxamide], the Ki amounted to 0.0182 µM at rat TAAR1 and 3 nM on mouse TAAR1.
As for `O=C(Nc1ccc(CC2(F)CNC2)cc1)c1cnc(C(F)(F)F)nc1` [Example 55, N-[4-[(3-fluoroazetidin-3-yl)methyl]phenyl]-2-(trifluoromethyl)pyrimidine-5-carboxamide], the Ki at rat TAAR1 came to 0.0059 µM; on mouse TAAR1, 16.1 nM.
The corresponding values for `O=C(Nc1ccc(CC2(F)CNC2)cc1)c1n[nH]c(C2CC2)c1Cl` [Example 56, 4-chloro-3-cyclopropyl-N-[4-[(3-fluoroazetidin-3-yl)methyl]phenyl]-1H-pyrazole-5-carboxamide] are 0.0151 µM and 3.4 nM.
For the compound `O=C(Nc1ccc(CC2(F)CNC2)cc1)c1cnc(OCC(F)(F)F)cn1` [Example 57, N-[4-[(3-fluoroazetidin-3-yl)methyl]phenyl]-5-(2,2,2-trifluoroethoxy)pyrazine-2-carboxamide], the figures for the Ki at rat TAAR1 and at mouse TAAR1 were 0.0369 µM and 14.7 nM, respectively.
In the same order, the values of `O=C(Nc1ccc(C=C2CNC2)cc1)c1n[nH]c(C2CC2)c1Cl` [Example 58, N-[4-(azetidin-3-ylidenemethyl)phenyl]-4-chloro-3-cyclopropyl-1H-pyrazole-5-carboxamide] are 0.0188 µM and 1.4 nM.
Take `O=C(Nc1ccc(C=C2CNC2)cc1)c1cnc(C(F)(F)F)nc1` [Example 59, N-[4-(azetidin-3-ylidenemethyl)phenyl]-2-(trifluoromethyl)pyrimidine-5-carboxamide]: the values for the inhibition constant Ki on rat TAAR1 and on mouse TAAR1 were 0.0079 µM and 8.9 nM, respectively.
In the case of `O=C(Nc1ccc(C=C2CNC2)cc1)c1ccnc(C(F)(F)F)c1` [Example 60, N-[4-(azetidin-3-ylidenemethyl)phenyl]-2-(trifluoromethyl)pyridine-4-carboxamide], the Ki on rat TAAR1 turned out to be 0.0099 µM; at mouse TAAR1, 8.4 nM.
The corresponding values for `O=C(Nc1ccc(C=C2CNC2)cc1)c1ccc(Cl)cc1` [Example 61, N-[4-(azetidin-3-ylidenemethyl)phenyl]-4-chloro-benzamide] are 0.246 µM and 121 nM.
The corresponding values for `FC(F)(F)c1nccc(Nc2ccc(C=C3CNC3)cc2)n1` [Example 62, N-[4-(azetidin-3-ylidenemethyl)phenyl]-2-(trifluoromethyl)pyrimidin-4-amine] are 0.0181 µM and 8.1 nM.
In the same order, the values of `FC(F)(F)c1cnc(Nc2ccc(C=C3CNC3)cc2)nc1` [Example 63, N-[4-(azetidin-3-ylidenemethyl)phenyl]-5-(trifluoromethyl)pyrimidin-2-amine] are 0.0385 µM and 61.4 nM.
For `O=C(Nc1ccc(CC2CNC2)cc1)c1ccc(Cl)nc1` [Example 64, N-[4-(azetidin-3-ylmethyl)phenyl]-6-chloro-pyridine-3-carboxamide], the values for the Ki on rat TAAR1 and at mouse TAAR1 were 0.0615 µM and 15 nM, respectively.
In the same order, the values of `O=C(Nc1ccc(C=C2CNC2)cc1)c1ccc(Cl)nc1` [Example 65, N-[4-(azetidin-3-ylidenemethyl)phenyl]-6-chloro-pyridine-3-carboxamide] are 0.023 µM and 2.6 nM.
As for `CCc1n[nH]c(C(=O)Nc2ccc(CC3(F)CNC3)cc2)c1Cl` [Example 66, 4-chloro-3-ethyl-N-[4-[(3-fluoroazetidin-3-yl)methyl]phenyl]-1H-pyrazole-5-carboxamide], the Ki on rat TAAR1 is 0.0824 µM; at mouse TAAR1, 323 nM.
Consider `CCOc1ccc(C(=O)Nc2ccc(CC3(F)CNC3)cc2)nn1` [Example 67, 6-ethoxy-N-[4-[(3-fluoroazetidin-3-yl)methyl]phenyl]pyridazine-3-carboxamide], for which the Ki on rat TAAR1 is 0.0968 µM; on mouse TAAR1, 29.4 nM.
In the same order, the values of `COc1cc(C(=O)Nc2ccc(CC3(F)CNC3)cc2)nc(C(F)(F)F)n1` [Example 68, 6 N-[4-[(3-fluoroazetidin-3-yl)methyl]phenyl]-6-methoxy-2-(trifluoromethyl)pyrimidine-4-carboxamide] are 0.0071 µM and 6.4 nM.
The corresponding values for `O=C(Nc1ccc(CC2(F)CNC2)cc1)c1cnc(OCC(F)(F)F)nc1` [Example 69, N-[4-[(3-fluoroazetidin-3-yl)methyl]phenyl]-2-(2,2,2-trifluoroethoxy)pyrimidine-5-carboxamide] are 0.0361 µM and 42.1 nM.
In the same order, the values of `O=C(Nc1ccc(CC2(F)CNC2)cc1)c1cnc(C(F)(F)F)cn1` [Example 70, N-[4-[(3-fluoroazetidin-3-yl)methyl]phenyl]-5-(trifluoromethyl)pyrazine-2-carboxamide] are 0.0099 µM and 6.9 nM.
With `O=C(Nc1ccc(C[C@H]2CCN2)cc1)c1ccc(Cl)cc1` [Example 71, N-[4-[[(2S)-azetidin-2-yl]methyl]phenyl]-4-chloro-benzamide], the Ki was found to be 0.0065 µM at rat TAAR1 and 1 nM at mouse TAAR1.
As for `O=C(Nc1ccc(C[C@@H]2CCN2)cc1)c1ccc(Cl)cc1` [Example 72, N-[4-[[(2R)-azetidin-2-yl]methyl]phenyl]-4-chloro-benzamide], the Ki on rat TAAR1 is 0.0686 µM; on mouse TAAR1 it was 3.9 nM.
In the same order, the values of `COC1(Cc2ccc(NC(=O)c3ccc(Cl)nc3)cc2)CNC1` [Example 73, 6-chloro-N-[4-[(3-methoxyazetidin-3-yl)methyl]phenyl]pyridine-3-carboxamide] are 0.0543 µM and 13.6 nM.
In the same order, the values of `COC1(Cc2ccc(NC(=O)c3cnc(C(F)(F)F)nc3)cc2)CNC1` [Example 74, N-[4-[(3-methoxyazetidin-3-yl)methyl]phenyl]-2-(trifluoromethyl)pyrimidine-5-carboxamide] are 0.0417 µM and 52.9 nM.
The corresponding values for `O=C(Nc1ccc(OC2CNC2)cc1)c1cnc(C(F)(F)F)cn1` [Example 75, N-[4-(azetidin-3-yloxy)phenyl]-5-(trifluoromethyl)pyrazine-2-carboxamide] are 0.0106 µM and 5.2 nM.
Turning to `CCOc1ccc(C(=O)Nc2ccc(OC3CNC3)cc2)nn1` [Example 76, N-[4-(azetidin-3-yloxy)phenyl]-6-ethoxy-pyridazine-3-carboxamide], the Ki at rat TAAR1 was 0.167 µM; at mouse TAAR1 it was 54 nM.
Consider `O=C(Nc1ccc(OC2CNC2)cc1)c1cnc(OCC(F)(F)F)cn1` [Example 77, N-[4-(azetidin-3-yloxy)phenyl]-5-(2,2,2-trifluoroethoxy)pyrazine-2-carboxamide], for which the figures for the Ki at rat TAAR1 and on mouse TAAR1 were 0.0187 µM and 4 nM, respectively.
The corresponding values for `O=C(Nc1ccc(C[C@@H]2CCN2)cc1)c1cnc(C(F)(F)F)nc1` [Example 78, N-[4-[[(2R)-azetidin-2-yl]methyl]phenyl]-2-(trifluoromethyl)pyrimidine-5-carboxamide] are 0.269 µM and 29.3 nM.
In the same order, the values of `O=C(Nc1ccc(C[C@@H]2CCN2)cc1)c1ccc(Cl)nc1` [Example 79, N-[4-[[(2R)-azetidin-2-yl]methyl]phenyl]-6-chloro-pyridine-3-carboxamide] are 0.348 µM and 10 nM.

A word on the Ki: it is the dissociation constant of the complex between target and ligand, obtained from inhibition or displacement.

The values are drawn from patent US10023559B2 (Hoffmann-La Roche Inc., priority 2014, dated 2018).
